Assay results taken from patent US20150216177A1, “METHOD FOR SELECTIVELY INHIBITING SULFATE-REDUCING BACTERIUM, GYPSUM COMPOSITION CAPABLE OF INHIBITING PROLIFERATION OF SULFATE-REDUCING BACTERIUM BY SAID METHOD, GYPSUM-TYPE SOLIDIFYING MATERIAL, AND GYPSUM-TYPE BUILDING MATERIAL” (priority 2012, published 2015).

Legend:
Type in all cases: cell-based
[1] = tested on: Sulfate-reducing bacterium: Desulfovibrio vulgaris DSM 644T
[2] = tested on: Butyric acid bacterium: Clostridium butyricum NBRC 13949T; conditions: 2 mM or 20 mM Al solution in culture medium, anaerobic shaking culture 37° C.; FIG. 3 / FIG. 6
[3] = tested on: Colon bacillus: Escherichia coli NBRC 102203T; test: Proliferation-inhibiting (bacteriostatic) effect in Al-added culture medium, protein amount by BCA method; conditions: 2 mM or 20 mM Al solution in culture medium, anaerobic shaking culture 37° C.; FIG. 2 / FIG. 5

| Molecule | selective bacteriostatic effect (sulfate-reducing bacterium versus colon bacillus and butyric acid bacterium) [1] | proliferation of the butyric acid bacterium (increase in protein amount) [2] | proliferation of the sulfate-reducing bacterium (increase in protein amount) [1] | proliferation of the colon bacillus (increase in protein amount) [3] |
| --- | --- | --- | --- | --- |
| EDTA/Al chelate [Example 3] | same selective bacteriostatic effects as in Example 1 were also recognized |  |  |  |
| oxalic acid/Al chelate [Example 2] | same selective bacteriostatic effects as in Example 1 were also recognized |  |  |  |
| citric acid/Al chelate [Example 1] | selective bacteriostatic effect was recognized | not inhibited | inhibited | not inhibited |
| [Cl][Al]([Cl])[Cl] [Comparative Example 1, AlCl3, reference compound] |  | inhibited | inhibited | inhibited |
